The values below come from patent publication US20230365592A1 (Agios Pharmaceuticals, Inc., priority 2022, published 2023).

For this assay, the target named is T1, human PAH with the R408W mutation (Homo sapiens, UniProt P00439, R408W).
T1 construct: expressed in transfected cells
T1 sequence (P00439 1-452 R408W): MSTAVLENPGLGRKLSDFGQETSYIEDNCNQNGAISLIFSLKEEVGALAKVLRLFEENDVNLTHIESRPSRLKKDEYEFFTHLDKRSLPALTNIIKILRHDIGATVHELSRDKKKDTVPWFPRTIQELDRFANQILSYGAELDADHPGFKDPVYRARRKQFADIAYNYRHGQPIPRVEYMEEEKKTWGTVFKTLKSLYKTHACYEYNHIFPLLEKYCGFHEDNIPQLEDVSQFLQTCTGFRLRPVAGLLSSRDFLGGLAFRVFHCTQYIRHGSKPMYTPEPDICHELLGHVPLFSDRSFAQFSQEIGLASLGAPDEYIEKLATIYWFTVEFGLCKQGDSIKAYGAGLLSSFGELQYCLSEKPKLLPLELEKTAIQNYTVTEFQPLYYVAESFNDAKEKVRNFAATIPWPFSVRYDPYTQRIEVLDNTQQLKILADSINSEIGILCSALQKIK
The experiment in a line: Cell Based Phenylalanine Flux Assay.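 Further: after compound treatment, cells received sepiapterin plus isotope-labelled Phenylalanine for 4 hours, then labelled Tyrosine in the medium was quantified, 10-point 2-fold dilution series run in duplicate.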 The settings on record: A375 cells expressing human PAH R408W; 24 hrs compound incubation; 13C-Tyrosine by LC-MS; average where tested multiple times; read-out: AC50.
As to `Fc1cccn2nc([C@@H]3c4nc[nH]c4CCN3c3nnc(C4CC4)o3)cc12` [Example 2433, (S)-2-cyclopropyl-5-(4-(4-fluoropyrazolo[1,5-a]pyridin-2-yl)-6,7-dihydro-1H-imidazo[4,5-c]pyridin-5(4H)-yl)-1,3,4-oxadiazole], the half-maximal activity concentration (AC50) was in the range of 1 to 5 µM.

For `Cn1cc(-c2ccc3c(C(=O)N4CCc5[nH]cnc5[C@H]4c4cc5c(F)cccn5n4)cnn3c2)cn1` [Example 2434, (S)-(4-(4-fluoropyrazolo[1,5-a]pyridin-2-yl)-6,7-dihydro-1H-imidazo[4,5-c]pyridin-5(4H)-yl)(6-(1-methyl-1H-pyrazol-4-yl)pyrazolo[1,5-a]pyridin-3-yl)methanone], the AC50 is 1 to 5 µM. As for `Cn1cc(-c2ccc3c(C(=O)N4CCc5[nH]cnc5[C@@H]4c4cc5c(F)cccn5n4)cnn3c2)cn1` [Example 2435, (R)-(4-(4-fluoropyrazolo[1,5-a]pyridin-2-yl)-6,7-dihydro-1H-imidazo[4,5-c]pyridin-5(4H)-yl)(6-(1-methyl-1H-pyrazol-4-yl)pyrazolo[1,5-a]pyridin-3-yl)methanone], the concentration at half-maximal activity (AC50) was more than 5 µM.

On to `COCc1ccc2c(C(=O)N3CCc4[nH]cnc4[C@H]3c3cc4c(C)cccn4n3)cnn2c1` [Example 2436, (S)-(6-(methoxymethyl)pyrazolo[1,5-a]pyridin-3-yl)(4-(4-methylpyrazolo[1,5-a]pyridin-2-yl)-6,7-dihydro-1H-imidazo[4,5-c]pyridin-5(4H)-yl)methanone], for which the AC50 lay within 1 to 5 µM.

As for `COCc1ccc2c(C(=O)N3CCc4[nH]cnc4[C@@H]3c3cc4c(C)cccn4n3)cnn2c1` [Example 2437, (R)-(6-(methoxymethyl)pyrazolo[1,5-a]pyridin-3-yl)(4-(4-methylpyrazolo[1,5-a]pyridin-2-yl)-6,7-dihydro-1H-imidazo[4,5-c]pyridin-5(4H)-yl)methanone], the AC50 was more than 5 µM. Take `Cn1cc(-c2ccc3c(C(=O)N4CCc5[nH]cnc5[C@H]4c4cc5cccc(C(F)(F)F)n5n4)cnn3c2)cn1` [Example 2438, (S)-(6-(1-methyl-1H-pyrazol-4-yl)pyrazolo[1,5-a]pyridin-3-yl)(4-(7-(trifluoromethyl)pyrazolo[1,5-a]pyridin-2-yl)-6,7-dihydro-1H-imidazo[4,5-c]pyridin-5(4H)-yl)methanone]: the concentration at half-maximal activity (AC50) is 1 to 5 µM. In the case of `FC(F)(F)c1cccc2cc([C@@H]3c4nc[nH]c4CCN3c3nnc(-c4ccccn4)o3)nn12` [Example 2440, (S)-2-(pyridin-2-yl)-5-(4-(7-(trifluoromethyl)pyrazolo[1,5-a]pyridin-2-yl)-6,7-dihydro-1H-imidazo[4,5-c]pyridin-5(4H)-yl)-1,3,4-oxadiazole] it was 1 to 5 µM.

Turning to `Cc1nnc(N2CCc3[nH]cnc3[C@H]2c2cc3c(C)cccn3n2)o1` [Example 2443, (S)-2-methyl-5-(4-(4-methylpyrazolo[1,5-a]pyridin-2-yl)-6,7-dihydro-1H-imidazo[4,5-c]pyridin-5(4H)-yl)-1,3,4-oxadiazole], the AC50 lay within 1 to 5 µM.

Turning to `Cn1cc(-c2nnc(C(=O)N3CCc4[nH]cnc4[C@H]3c3cc4c(OC(F)F)cccn4n3)o2)cn1` [Example 2445, (S)-(4-(4-(difluoromethoxy)pyrazolo[1,5-a]pyridin-2-yl)-6,7-dihydro-1H-imidazo[4,5-c]pyridin-5(4H)-yl)(5-(1-methyl-1H-pyrazol-4-yl)-1,3,4-oxadiazol-2-yl)methanone], the AC50 lay in the range of 1 to 5 µM.

As to `COc1cccn2nc([C@@H]3c4nc[nH]c4CCN3C(=O)c3nnc(-c4cnn(C(F)F)c4)o3)cc12` [Example 2446, (S)-(5-(1-(difluoromethyl)-1H-pyrazol-4-yl)-1,3,4-oxadiazol-2-yl)(4-(4-methoxypyrazolo[1,5-a]pyridin-2-yl)-6,7-dihydro-1H-imidazo[4,5-c]pyridin-5(4H)-yl)methanone], the concentration at half-maximal activity (AC50) lay within 1 to 5 µM. For `COc1cccn2nc([C@H]3c4nc[nH]c4CCN3C(=O)c3nnc(-c4cnn(C(F)F)c4)o3)cc12` [Example 2447, (R)-(5-(1-(difluoromethyl)-1H-pyrazol-4-yl)-1,3,4-oxadiazol-2-yl)(4-(4-methoxypyrazolo[1,5-a]pyridin-2-yl)-6,7-dihydro-1H-imidazo[4,5-c]pyridin-5(4H)-yl)methanone] the value was more than 5 µM; for `O=C(c1nnc(-c2cnccn2)o1)N1CCc2[nH]cnc2[C@H]1c1cc2c(OC(F)F)cccn2n1` [Example 2448, (S)-(4-(4-(difluoromethoxy)pyrazolo[1,5-a]pyridin-2-yl)-6,7-dihydro-1H-imidazo[4,5-c]pyridin-5(4H)-yl)(5-(pyrazin-2-yl)-1,3,4-oxadiazol-2-yl)methanone], 1 to 5 µM; for `O=C(c1nnc(-c2cnccn2)o1)N1CCc2[nH]cnc2[C@@H]1c1cc2c(OC(F)F)cccn2n1` [Example 2449, (R)-(4-(4-(difluoromethoxy)pyrazolo[1,5-a]pyridin-2-yl)-6,7-dihydro-1H-imidazo[4,5-c]pyridin-5(4H)-yl)(5-(pyrazin-2-yl)-1,3,4-oxadiazol-2-yl)methanone], more than 5 µM. With `COc1ccc2c(C(=O)N3CCc4[nH]cnc4[C@H]3c3cc4c(C)cccn4n3)cnn2c1` [Example 2450, (S)-(6-methoxypyrazolo[1,5-a]pyridin-3-yl)(4-(4-methylpyrazolo[1,5-a]pyridin-2-yl)-6,7-dihydro-1H-imidazo[4,5-c]pyridin-5(4H)-yl)methanone], the AC50 was 1 to 5 µM. For `COc1ccc2c(C(=O)N3CCc4[nH]cnc4[C@@H]3c3cc4c(C)cccn4n3)cnn2c1` [Example 2451, (R)-(6-methoxypyrazolo[1,5-a]pyridin-3-yl)(4-(4-methylpyrazolo[1,5-a]pyridin-2-yl)-6,7-dihydro-1H-imidazo[4,5-c]pyridin-5(4H)-yl)methanone] the value was more than 5 µM; for `O=C(c1cnn2cc(-c3ccccn3)ccc12)N1CCc2[nH]cnc2[C@H]1c1cc2cccc(C(F)(F)F)n2n1` [Example 2452, (S)-(6-(pyridin-2-yl)pyrazolo[1,5-a]pyridin-3-yl)(4-(7-(trifluoromethyl)pyrazolo[1,5-a]pyridin-2-yl)-6,7-dihydro-1H-imidazo[4,5-c]pyridin-5(4H)-yl)methanone], 1 to 5 µM; for `Clc1cccc2cc([C@@H]3c4nc[nH]c4CCN3c3ncccn3)nn12` [Example 2454, (S)-4-(7-chloropyrazolo[1,5-a]pyridin-2-yl)-5-(pyrimidin-2-yl)-4,5,6,7-tetrahydro-1H-imidazo[4,5-c]pyridine], 1 to 5 µM. In the case of `Clc1cccc2cc([C@H]3c4nc[nH]c4CCN3c3ncccn3)nn12` [Example 2455, (R)-4-(7-chloropyrazolo[1,5-a]pyridin-2-yl)-5-(pyrimidin-2-yl)-4,5,6,7-tetrahydro-1H-imidazo[4,5-c]pyridine], the AC50 was 1 to 5 µM.

Take `Cc1nnc(N2CCc3[nH]cnc3[C@H]2c2cc3c(Cl)cccn3n2)o1` [Example 2456, (S)-2-(4-(4-chloropyrazolo[1,5-a]pyridin-2-yl)-6,7-dihydro-1H-imidazo[4,5-c]pyridin-5(4H)-yl)-5-methyl-1,3,4-oxadiazole]: the AC50 was in the range of 1 to 5 µM. For `O=C(c1nnc(-c2cnn(C(F)(F)F)c2)o1)N1CCc2[nH]cnc2[C@H]1c1cc2c(OC(F)F)cccn2n1` [Example 2458, (S)-(4-(4-(difluoromethoxy)pyrazolo[1,5-a]pyridin-2-yl)-6,7-dihydro-1H-imidazo[4,5-c]pyridin-5(4H)-yl)(5-(1-(trifluoromethyl)-1H-pyrazol-4-yl)-1,3,4-oxadiazol-2-yl)methanone] the value was 1 to 5 µM; for `FC(F)c1nnc(N2CCc3[nH]cnc3[C@H]2c2cc3ccccn3n2)o1` [Example 2461, (S)-2-(difluoromethyl)-5-(4-(pyrazolo[1,5-a]pyridin-2-yl)-6,7-dihydro-1H-imidazo[4,5-c]pyridin-5(4H)-yl)-1,3,4-oxadiazole], 1 to 5 µM.

Take `O=C(c1cnn2cc(C3CC3)ccc12)N1CCc2[nH]cnc2[C@H]1c1cc2cccc(C(F)F)n2n1` [Example 2462, (S)-(6-cyclopropylpyrazolo[1,5-a]pyridin-3-yl)(4-(7-(difluoromethyl)pyrazolo[1,5-a]pyridin-2-yl)-6,7-dihydro-1H-imidazo[4,5-c]pyridin-5(4H)-yl)methanone]: the half-maximal activity concentration (AC50) lay in the range of 1 to 5 µM. For the compound `COc1ccc2c(C(=O)N3CCc4[nH]cnc4[C@H]3c3cc4cccc(Cl)n4n3)cnn2c1` [Example 2464, (S)-(4-(7-chloropyrazolo[1,5-a]pyridin-2-yl)-6,7-dihydro-1H-imidazo[4,5-c]pyridin-5(4H)-yl)(6-methoxypyrazolo[1,5-a]pyridin-3-yl)methanone], the AC50 is 1 to 5 µM.

On to `COc1ccc2c(C(=O)N3CCc4[nH]cnc4[C@@H]3c3cc4cccc(Cl)n4n3)cnn2c1` [Example 2465, (R)-(4-(7-chloropyrazolo[1,5-a]pyridin-2-yl)-6,7-dihydro-1H-imidazo[4,5-c]pyridin-5(4H)-yl)(6-methoxypyrazolo[1,5-a]pyridin-3-yl)methanone], for which the AC50 is more than 5 µM. For `Cc1nnc(N2CCc3[nH]cnc3[C@H]2c2cc3c(C(F)F)cccn3n2)o1` [Example 2467, (S)-2-(4-(4-(difluoromethyl)pyrazolo[1,5-a]pyridin-2-yl)-6,7-dihydro-1H-imidazo[4,5-c]pyridin-5(4H)-yl)-5-methyl-1,3,4-oxadiazole] the value was 1 to 5 µM.
